Earlier results on 2 compounds are cited in patent US8796195B2 (priority 2007, dated 2014).

For data set [1] the following is noted: based on 48% tetrafluoroboric acid.

The structures appear in SMILES notation. “And” between values parts separate entries of the source, which are not always exact repeats. Identical values can stand only once.

In the case of `F` [HF, hydrofluoric acid], the pKa is 3.4 and ~3.5. Turning to `F[B-](F)(F)F.[H+]` [Tetrafluoroboric acid, tetrafluoroboric acid], the pKa entry is recorded as “approximately −3”. Also, in data set [1], the “LD50 (toxic by ingestion)” value was 100 to 464 mg/kg.
